Marks after values point to notes of the source that are not given here. Where no end group is shown, it is not given here.
Assays:
Brain tumor cells = test: MTT proliferation inhibition, brain tumor cells; format: cell-based, human; parameters: concentration or dose not given beside the values; conditions: 48 h
Description: The activity of mPEG-HM-1 to inhibit the growth of various tumor cells was examined by MTT assay. The tumor cells were cultured to a concentration of 90% or more in a 37° C., 5% CO2 incubator and collected by trypsinization. The cells were resuspended in the culture medium and counted under a microscope to adjust the cell concentration to 2×10^4 cells/mL, the cell suspension was inoculated into a 96-well plate at 100 μL/well and incubated overnight at 37° C. in a 5% CO2 incubator. mPEG-HM-1 was diluted with the culture solution to each predetermined concentration. Docetaxel is diluted to the final concentration with the culture medium. After the cells were fully attached, each dilution was added to a 96-well plate (100 μL/well). The mPEG-HM-1 dilution was added as a drug-administered group, and docetaxel was added as a positive control group, and a culture solution without any drug was used as a negative control group. Incubate for 48 h at 37° C. in a 5% CO2 incubator. 5 mg/mL of MTT was added to a 96-well plate at 20 μL per well, and incubation was continued for 4 hours. The medium was aspirated, dissolved in 150 μL of DMSO per well, and gently mixed by shaking for 10 min. The absorbance was measured at a measurement wavelength of 570 nm and a reference wavelength of 630 nm using a microplate reader, and the rate of growth inhibition (proliferation inhibition, PI) was calculated. The formula is as follows: PI (%)=1−administration group/negative group
The test was repeated 3 times independently, and the results obtained by the test were expressed as mean±SD, and the test results are shown in Table 15 to Table 18.

[1] = system: xylene-induced ear swelling in Kunming mice; test: Xylene-induced ear swelling in mice; format: in vivo, mouse; conditions: for Inhibition rate: ear swelling vs control
Description: Kunming mice were used. The saline group was used as the blank control group, the aspirin group (200 mg/kg) as the positive control group, and the mPEG-HM-1 administration group as the experimental group. Mice were administered once daily for 5 consecutive days. The blank control group was given an equal volume of physiological saline. One hour after the last administration, 0.05 mL of xylene was applied to both sides of the right ear of the mice to cause inflammation, and the left ear was not coated as normal ears. After 2 h, the mice were sacrificed by dislocation, and the ears were cut along the auricle. Ear pieces were taken with a puncher, weighed, and the swelling degree and swelling rate were calculated. Swelling degree=right ear piece weight-left ear piece weight, swelling rate=(swelling degree/left ear piece weight)×100%. Statistical t-test was performed on the test results, *P<0.05 was a significant difference, and **P<0.01 was a very significant difference. See Table 31 to Table 34 for the results.

[2] = system: collagen induced arthritis (CIA) in DBA/1 mice; test: Collagen-induced mouse arthritis (CIA) model; format: in vivo; conditions: for Joint swelling / Left and right paw swelling / Clinical score: CIA DBA/1 mice; for Clinical score: maximum score 16
[3] = system: human retinal vascular endothelial cells (HRCEC); test: MTT proliferation of human retinal vascular endothelial cells; format: cell-based; conditions: 48 h; for Inhibition rate: HRCEC proliferation; for A570 nm-A630 nm: HRCEC
Description: The activity of the angiogenesis inhibitor polypeptide to inhibit proliferation of human retinal vascular endothelial cells was examined by MTT assay. HRCEC cells were cultured in a 37° C., 5% CO2 incubator to a density of 90% or more, and collected by trypsinization. The cells were resuspended in the culture medium and counted under a microscope to adjust the cell concentration to 3.0×10^4 cells/mL. The cell suspension was inoculated into a 96-well plate at 100 μL per well and cultured overnight at 37° C. in a 5% CO2 incubator. After the cells were completely adhered, the angiogenesis inhibitor polypeptide was added as the administration group, and Avastin was used as the positive control group, and the culture media without any drug was used as a blank control group, and the culture media were diluted to each predetermined concentration. Each dilution was separately added to a 96-well plate at 100 μL per well and incubated for 48 h at 37° C. in a 5% CO2 incubator. 20 μL of 5 mg/mL MTT was added to each well of a 96-well plate and incubation was continued for 4 h. The medium was aspirated and dissolved in 100 μL of DMSO per well. […] The formula is as follows: PI (%)=1−administration group/negative group
The test was repeated 3 times independently. The results obtained by the test were expressed as mean±SD, and a statistical T test was performed. *P<0.05 was a significant difference, and **P<0.01 was a very significant difference.

[4] = system: corneal neovascularization in BALB/c mice; test: Alkali-burn corneal neovascularization in BALB/c mice (CD31 microvessel density); format: in vivo, mouse; conditions: for Inhibition rate: corneal microvessel density vs control; for Inhibition rate / MVD: day 14 after alkali burn, intravitreal once a day for 1 week; for MVD: microvessel density (CD31) of cornea
Text: (1) Preparation of corneal neovascularization model induced by alkali burn in BALB/c mice: mice were randomly grouped and labeled as mPEG-HM-1 experimental group and control group, 5 […] in each group, respectively, was given mPEG-HM-1 and saline by Intravitreal injection after alkali burn, once a day for 1 week. The inflammatory reaction and neovascularization of the cornea were observed under slit lamp microscope at 1 d, 7 d, and 14 d after alkali burn. On the 14th day after alkali burn, the corneal neovascularization was recorded under the slit lamp microscope in the anterior segment of the eye. All the mice were euthanized by cervical dislocation and the eyeballs were removed, washed with saline to rid of blood, and was fixed in 4% paraformaldehyde for 1.5 h, dehydrated in PBS containing 30% sucrose overnight, embedded in OCT frozen section embedding agent, stored in −80° C. refrigerator, frozen section 8 μm, and underwent immunocytochemical detection of CD31 expression. (2) Quantitative measurement of corneal tissue microvessel density: Microvessel density (MVD) is an indicator for evaluating angiogenesis. Vascular endothelial cells were labeled with anti-CD31 antibody by immunohistochemistry, and the number of microvessels per unit area was counted to measure the degree of neovascularization. Standards for counting microvessels: Microscopically, the endothelial cells or cell clusters that are clearly demarcated from adjacent tissues in the corneal tissue and stained brown or brown are counted in the neovascularization. The number of new blood vessels in the whole section was counted under a 10×20 microscope. After the corneal tissue was photographed, the entire corneal tissue area was calculated by image processing software Image J, and the neovascular density of the whole section was determined. The test was repeated 3 times independently. The results obtained by the test were expressed as mean±SD, and a statistical T test was performed. *P<0.05 was a significant difference, and **P<0.01 was a very significant difference.

[5] = 5 mg/kg once daily for 5 days, right minus left ear piece weight 2 h after xylene
[6] = 10 mg/kg once daily for 5 days, 2 h after xylene
[7] = 20 mg/kg once daily for 5 days, 2 h after xylene
[8] = 10 mg/kg subcutaneous from day 30 of modeling
[9] = 40 mg/kg once daily for 5 days, 2 h after xylene
[10] = 20 mg/kg subcutaneous from day 30 of modeling
[11] = 80 mg/kg once daily for 5 days, 2 h after xylene
[12] = 40 mg/kg subcutaneous from day 30 of modeling
[13] = 80 mg/kg subcutaneous from day 30 of modeling

Substance | rate of growth inhibition (Brain tumor cells) [%] | Inhibition rate ([1]; 5 mg/kg once daily for 5 days) [%] | Swelling [1, 5] [mg] | Swelling [1, 6] | Inhibition rate ([1]; 10 mg/kg once daily for 5 days) [%] | Swelling [1, 7] | Inhibition rate ([1]; 20 mg/kg once daily for 5 days) [%] | Joint swelling [2, 8] [mm] | Left and right paw swelling [2, 8] [mm] | Clinical score [2, 8] | Inhibition rate ([3]; 40 μg/mL) | A570 nm-A630 nm ([3]; 40 μg/mL, MTT) | Inhibition rate ([3]; 60 μg/mL) | A570 nm-A630 nm ([3]; 60 μg/mL, MTT) | Inhibition rate [4] [%] | MVD [4] | Swelling [1, 9] | Inhibition rate ([1]; 40 mg/kg once daily for 5 days) [%] | Inhibition rate ([3]; 80 μg/mL) | A570 nm-A630 nm ([3]; 80 μg/mL, MTT) | other results
mPEG2-NHS5k-Arg-Gly-Ala-Asp-Arg-Ala-Gly-Gly-Gly-Gly-Arg-Gly-Asp ({mPEG2‑NHS 5 kDa}-RGADRAGGGGRGD) [mPEG2-NHS5k-HM-1] | 40.35 ± 10.29 | 10.02 | 5.56 ± 0.19 | 4.94 ± 0.28* mg | 20.05 | 4.31 ± 0.20** mg | 30.23 | 0.78 ± 0.12 | 0.76 ± 0.11 | 9.01 ± 1.28 | 50.65%** | 0.6523 ± 0.08688 | 61.08%* | 0.5144 ± 0.08531 | 40.13 | 39.95 ± 3.985* |  |  |  |  | Inhibition rate ([3]; 20 μg/mL): 40.94%*; A570 nm-A630 nm ([3]; 20 μg/mL, MTT): 0.7807 ± 0.09103
mPEG2-NHS10k-Arg-Gly-Ala-Asp-Arg-Ala-Gly-Gly-Gly-Gly-Arg-Gly-Asp ({mPEG2‑NHS 10 kDa}-RGADRAGGGGRGD) [mPEG2-NHS10k-HM-1] | 47.62 ± 11.11 |  |  | 5.39 ± 0.14 mg | 12.76 | 4.72 ± 0.72* mg | 23.57 |  |  |  | 45.83%* | 0.7160 ± 0.07829 | 54.72%** | 0.5985 ± 0.07472 | 50.07 | 33.32 ± 3.871** | 4.13 ± 0.35** mg | 33.19 | 65.13%* | 0.4609 ± 0.07165 | Joint swelling [2, 10]: 0.75 ± 0.15 mm; Left and right paw swelling [2, 10]: 0.74 ± 0.14 mm; Clinical score [2, 10]: 8.83 ± 1.32; inhibition rate of HRCEC proliferation ([3]; 80 μg/mL, MTT): 65.13%; inhibition rate of corneal neovascularization ([4]; BALB/c mice, alkali burn, intravitreal injection once a day for 1 week): 50.07%
mPEG2-NHS20k-Arg-Gly-Ala-Asp-Arg-Ala-Gly-Gly-Gly-Gly-Arg-Gly-Asp ({mPEG2‑NHS 20 kDa}-RGADRAGGGGRGD) [mPEG2-NHS20k-HM-1] | 45.51 ± 10.15 |  |  |  |  | 5.52 ± 0.16 mg | 10.65 |  |  |  |  |  | 44.01%* | 0.7401 ± 0.07482 | 42.37 | 38.46 ± 4.528** | 4.80 ± 0.29* mg | 22.37 | 54.18%** | 0.6056 ± 0.07003 | Swelling [1, 11]: 3.96 ± 0.22** mg; Inhibition rate ([1]; 80 mg/kg once daily for 5 days): 35.92%; Joint swelling [2, 12]: 0.72 ± 0.16 mm; Left and right paw swelling [2, 12]: 0.75 ± 0.12 mm; Clinical score [2, 12]: 8.67 ± 1.35; limbs score (in words) ([2]; CIA mice, subcutaneous, once every three days, vs model control group): significantly lower than that of the model control group; Inhibition rate ([3]; 100 μg/mL): 64.62%*; A570 nm-A630 nm ([3]; 100 μg/mL, MTT): 0.4677 ± 0.07601
mPEG2-NHS40k-Arg-Gly-Ala-Asp-Arg-Ala-Gly-Gly-Gly-Gly-Arg-Gly-Asp ({mPEG2‑NHS 40 kDa}-RGADRAGGGGRGD) [mPEG2-NHS40k-HM-1] | 42.56 ± 11.38 |  |  |  |  |  |  |  |  |  |  |  |  |  | 43.19 | 37.91 ± 4.273** | 5.47 ± 0.12 mg | 11.52 | 42.52%* | 0.7598 ± 0.07143 | Swelling [1, 11]: 4.83 ± 0.67* mg; Inhibition rate ([1]; 80 mg/kg once daily for 5 days): 21.88%; Swelling ([1]; 160 mg/kg once daily for 5 days, 2 h after xylene): 4.19 ± 0.34** mg; Inhibition rate ([1]; 160 mg/kg once daily for 5 days): 32.26%; Joint swelling [2, 13]: 0.76 ± 0.14 mm; Left and right paw swelling [2, 13]: 0.79 ± 0.15 mm; Clinical score [2, 13]: 8.98 ± 1.30; Inhibition rate ([3]; 100 μg/mL): 51.86%**; A570 nm-A630 nm ([3]; 100 μg/mL, MTT): 0.6363 ± 0.07532; Inhibition rate ([3]; 120 μg/mL): 62.78%*; A570 nm-A630 nm ([3]; 120 μg/mL, MTT): 0.4920 ± 0.07953
mPEG-ALD5k-Arg-Gly-Ala-Asp-Arg-Ala-Gly-Gly-Gly-Gly-Arg-Gly-Asp ({mPEG‑ALD 5 kDa}-RGADRAGGGGRGD) [mPEG-ALD5k-HM-1] | 42.15 ± 12.89 | 10.17 | 5.50 ± 0.21 | 4.80 ± 0.35* mg | 21.52 | 4.16 ± 0.14** mg | 32.10 | 0.74 ± 0.14 | 0.72 ± 0.15 | 8.93 ± 1.27 | 51.93%** | 0.6301 ± 0.08011 | 61.53%* | 05042 ± 0.08135 | 45.09 | 36.64 ± 3.909* |  |  |  |  | Inhibition rate ([3]; 20 μg/mL): 42.02%*; A570 nm-A630 nm ([3]; 20 μg/mL, MTT): 0.7599 ± 0.08933
